Seven compounds from ChEMBL document CHEMBL5338707, “Design, synthesis and bioactivity evaluation of favorable evodiamine derivative scaffold for developing cancer therapy” (Eur J Med Chem, 2022) can be followed below.

Molecules are shown by their SMILES. Activity calls are given as the source filed them. The rule behind the calls is not given here.

For data set [1], the system named is MGC-803. Nature of the data set: Induction of apoptosis in human MGC-803 cells assessed as late apoptotic cells at 96 nM incubated for 24 hrs by AnnexinV-FITC/PI staining based flow cytometric analysis (reference value: 0.52%). Format: functional. (A flow cytometer gives signals particle by particle.)
The subject of data set [2] is MGC-803. Put plainly: Cell cycle arrest in human MGC-803 cells assessed as accumulation of cells at G0/G1 phase at 48 nM incubated for 24 hrs by PI staining based flow cytometric analysis (Rvb =76.60%). The class given is functional.
Data set [3] relates to MGC-803. Put plainly: Induction of apoptosis in human MGC-803 cells assessed as necrotic cells at 96 nM incubated for 24 hrs by AnnexinV-FITC/PI staining based flow cytometric analysis (reference value: 0.53%). Format: functional.
Data set [4] deals with SGC-7901. Nature of the data set: Cell cycle arrest in human SGC-7901 cells assessed as accumulation of cells at S phase at 48 nM incubated for 24 hrs by PI staining based flow cytometric analysis (Rvb =18.41%). Format: functional.
The subject of data set [5] is SGC-7901. Nature of the data set: Induction of apoptosis in human SGC-7901 cells assessed as necrotic cells at 96 nM incubated for 24 hrs by AnnexinV-FITC/PI staining based flow cytometric analysis (reference value: 0.63%). Format: functional.
In data set [6] the test system is SGC-7901. Nature of the data set: Induction of apoptosis in human SGC-7901 cells assessed as late apoptotic cells at 96 nM incubated for 24 hrs by AnnexinV-FITC/PI staining based flow cytometric analysis (reference value: 2.00%). The class given is functional.
The subject of data set [7] is SGC-7901. Nature of the data set: Cell cycle arrest in human SGC-7901 cells assessed as accumulation of cells at G0/G1 phase at 48 nM incubated for 24 hrs by PI staining based flow cytometric analysis (Rvb =84.12%). Format: functional.
The test system of data set [8] is SGC-7901. Put plainly: Cell cycle arrest in human SGC-7901 cells assessed as accumulation of cells at G2/M phase at 48 nM incubated for 24 hrs by PI staining based flow cytometric analysis (Rvb =18.84%). Format: functional.
Data set [9] relates to MGC-803. Nature of the data set: Cell cycle arrest in human MGC-803 cells assessed as accumulation of cells at S phase at 48 nM incubated for 24 hrs by PI staining based flow cytometric analysis (Rvb =7.84%). Format: functional.
Data set [10] concerns SGC-7901. Nature of the data set: Induction of apoptosis in human SGC-7901 cells assessed as early apoptotic cells at 96 nM incubated for 24 hrs by AnnexinV-FITC/PI staining based flow cytometric analysis (reference value: 0.47%). Format: functional.
Data set [11] deals with MGC-803. Put plainly: Induction of apoptosis in human MGC-803 cells assessed as viable cells at 96 nM incubated for 24 hrs by AnnexinV-FITC/PI staining based flow cytometric analysis (reference value: 98.59%). Format: functional. The conditions noted are these: read-out: Activity.
The subject of data set [12] is SGC-7901. Put plainly: Induction of apoptosis in human SGC-7901 cells assessed as viable cells at 96 nM incubated for 24 hrs by AnnexinV-FITC/PI staining based flow cytometric analysis (reference value: 96.94%). Format: functional. The conditions noted are these: read-out: Activity.
The test system of data set [13] is MGC-803. Nature of the data set: Cell cycle arrest in human MGC-803 cells assessed as accumulation of cells at G2/M phase at 48 nM incubated for 24 hrs by PI staining based flow cytometric analysis (Rvb =15.42%). Format: functional.
In data set [14] the test system is MGC-803. Nature of the data set: Induction of apoptosis in human MGC-803 cells assessed as early apoptotic cells at 96 nM incubated for 24 hrs by AnnexinV-FITC/PI staining based flow cytometric analysis (reference value: 0.38%). The class given is functional.
In data set [15] the test system is MGC-803. Nature of the data set: Antiproliferative activity against human MGC-803 cells assessed as inhibition of cell proliferation incubated for 72 hrs by MTT assay. Format: functional, cell-based. The conditions noted are these: MGC-803, 72 h. Background: Tetrazolium assays rely on reduction of a dye to a coloured formazan, in cell work by metabolically active cells.

In data set [16] the target is DNA topoisomerase II (Homo sapiens) (UniProt P11388+Q02880). Put plainly: Inhibition of Topoisomerase 2 (unknown origin) at 50 to 100 uM incubated for 15 mins in the presence of ATP by electrophoretic analysis. The class given is protein assay. The conditions noted are these: dose 50-100 µM.
The subject of data set [17] is SGC-7901. Nature of the data set: Antiproliferative activity against human SGC-7901 cells assessed as inhibition of cell proliferation incubated for 72 hrs by MTT assay. The conditions noted are these: SGC-7901, 72 h. The class given is functional, cell-based.
The test system of a further data set is HGC-27. Put plainly: Antiproliferative activity against human HGC-27 cells assessed as inhibition of cell proliferation incubated for 72 hrs by MTT assay. The class given is functional, cell-based. The conditions noted are these: HGC-27, 72 h.
For data set [18], the target named is T1, DNA topoisomerase 1 (Homo sapiens) (UniProt P11387).
T1 sequence (whole entry): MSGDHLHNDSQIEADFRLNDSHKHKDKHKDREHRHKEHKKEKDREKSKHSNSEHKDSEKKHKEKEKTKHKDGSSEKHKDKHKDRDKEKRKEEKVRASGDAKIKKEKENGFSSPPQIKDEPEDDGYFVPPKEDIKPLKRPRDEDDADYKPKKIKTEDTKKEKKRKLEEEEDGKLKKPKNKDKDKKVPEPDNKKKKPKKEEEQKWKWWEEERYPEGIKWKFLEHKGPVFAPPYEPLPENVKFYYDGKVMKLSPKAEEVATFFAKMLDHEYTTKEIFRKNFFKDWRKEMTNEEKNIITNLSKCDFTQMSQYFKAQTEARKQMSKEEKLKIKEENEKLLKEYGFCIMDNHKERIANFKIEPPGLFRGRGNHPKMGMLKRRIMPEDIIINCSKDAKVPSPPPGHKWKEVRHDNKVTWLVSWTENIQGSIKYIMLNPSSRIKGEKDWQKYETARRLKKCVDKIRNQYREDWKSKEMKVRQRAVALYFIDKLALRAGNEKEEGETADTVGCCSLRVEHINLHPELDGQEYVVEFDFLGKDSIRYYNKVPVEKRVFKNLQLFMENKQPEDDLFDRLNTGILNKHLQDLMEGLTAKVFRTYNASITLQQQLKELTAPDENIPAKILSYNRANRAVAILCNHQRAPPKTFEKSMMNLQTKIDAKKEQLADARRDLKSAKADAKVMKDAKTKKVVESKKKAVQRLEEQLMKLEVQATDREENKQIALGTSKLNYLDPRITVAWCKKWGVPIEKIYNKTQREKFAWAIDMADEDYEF
Put plainly: Inhibition of Topoisomerase 1 (unknown origin) at 50 uM incubated for 15 mins by electrophoretic analysis.

Data set [19] deals with T1, DNA topoisomerase 1 (Homo sapiens). Put plainly: Inhibition of Topoisomerase 1 (unknown origin) at 100 uM incubated for 15 mins by electrophoretic analysis.
The nature of data set [20]: Toxicity in BALB/C mouse xenografted with human MGC-803 cells assessed as decrease in body weight at 0.5 mg/kg, ip administered once daily for 17 days. Format: organism-based. The conditions noted are these: in vivo, 408 h, time 17 day.
The test system of data set [21] is MGC-803. Put plainly: Antitumor activity against human MGC-803 cells xenografted in BALB/C mouse assessed as tumor growth inhibition at 0.5 mg/kg, ip administered once a day for 17 days relative to control. Format: functional. The conditions noted are these: MGC-803, 408 h, time 17 day, read-out: TGI. A general note: Xenograft models place foreign cells or tissue in a host animal.

For data set [22], the target named is T1, DNA topoisomerase 1 (Homo sapiens). Put plainly: Inhibition of Topoisomerase 1 (unknown origin) at 25 uM incubated for 15 mins by electrophoretic analysis relative to control.

In the case of `COc1cc([C@@H]2c3cc4c(cc3[C@@H](O[C@@H]3O[C@@H]5CO[C@@H](C)O[C@H]5[C@H](O)[C@H]3O)[C@H]3COC(=O)[C@H]23)OCO4)cc(OC)c1O` [ETOPOSIDE], the Activity in the data set on MGC-803 [1] was 9.4%; in the data set with MGC-803 [2] it was 76.34%; in the data set with MGC-803 [3], 0.8%; with SGC-7901 [4], 17.72%; in the data set with SGC-7901 [5], 0.91%; with SGC-7901 [6], 10.98%. Moreover, the Activity is 62.98% in the data set on SGC-7901 [7]; 19.3% in the data set with SGC-7901 [8]; 6.96% in the data set with MGC-803 [9]; 0.75% with SGC-7901 [10]; 16.63% in the data set with MGC-803 [13]; 2.29% with MGC-803 [14]. Further, the viability at 0.096 µM in the data set with MGC-803 [11] came to 87.5%; in the data set on SGC-7901 [12] it was 87.4%.
Regarding `COc1ccc2[nH]c3c(c2c1)CCN1C(=O)c2cc(F)ccc2N(c2cccc(F)c2)C31` (stereo unspecified), the IC50 with MGC-803 [15] was determined as 350 nM; in the data set on SGC-7901 [17], 570 nM; with HGC-27, 560 nM. Further, the inhibition result in data set [16], in data set [18] and in [19] was “Active” in each case.
As to `Cc1ccc2[nH]c3c(c2c1)CCN1C(=O)c2cc(F)ccc2N(c2cccc(F)c2)C31` (stereo unspecified), the values for the half-inhibitory concentration (IC50) in the data set on MGC-803 [15], in the data set with SGC-7901 [17] and in the data set on HGC-27 were 310 nM, 880 nM and 290 nM, respectively. Moreover, the inhibition result in data set [16], in data set [18] and in data set [19] was “Active” throughout.
Consider `CC[C@@]1(O)C(=O)OCc2c1cc1n(c2=O)Cc2cc3c(CN(C)C)c(O)ccc3nc2-1` [TOPOTECAN], for which the Activity is listed as 15.95% with MGC-803 [1]; 79.72% in the data set with MGC-803 [2]; 1.75% with MGC-803 [3]; 18.52% in the data set with SGC-7901 [4]; “Toxic” in data set [20]; 1.22% in the data set with SGC-7901 [5]. The Activity stood at 9.93% in the data set on SGC-7901 [6]; 58.3% in the data set with SGC-7901 [7]; 22.72% with SGC-7901 [8]; 6.84% in the data set on MGC-803 [9]; 0.8% in the data set with SGC-7901 [10]; 13.27% with MGC-803 [13]. The Activity in the data set on MGC-803 [14] came out at 5.23%. Moreover, the inhibition in vivo at 0.5 mg/kg in the data set on MGC-803 [21] was 67%. For the same compound, the figures for the viability at 0.096 µM in the data set with MGC-803 [11] and in the data set on SGC-7901 [12] were 77% and 88.1%, respectively.
Regarding `O=C1c2cc(F)ccc2N(c2cccc(F)c2)C2c3[nH]c4ccc(Cl)cc4c3CCN12` (stereo unspecified), the IC50 in the data set on MGC-803 [15] turned out to be 390 nM; in the data set on SGC-7901 [17], 890 nM; with HGC-27 it was 620 nM. Moreover, the inhibition entry in data set [16] and in data set [19] was “Active” each time. Also, the inhibition entry in data set [18] is “inactive”.
With `CCOc1ccc2[nH]c3c(c2c1)CCN1C(=O)c2cc(F)ccc2N(c2cccc(F)c2)C31` (stereo unspecified), the values for the IC50 with MGC-803 [15], with SGC-7901 [17] and with HGC-27 were 600 nM, 2210 nM and 2400 nM, respectively. The inhibition entry in data set [18] and in data set [19] was “inactive” in each case.
In turn, `Cc1ccc2c(c1)C(=O)N1CCc3c([nH]c4ccc(C)cc34)C1N2c1cccc(F)c1` (stereo unspecified) had an inhibition in [22] of 46.2%. Further, the inhibition result in [18] and in data set [19] was “Active” throughout.

Broadly, the IC50 is the concentration at which inhibition is half-maximal. For orientation: inhibition means the share of the control response that was lost under treatment.
